Data reported in US10906878B2, “Kinase inhibitors for the treatment of disease” (Dana-Farber Cancer Institute, Inc., priority 2013, dated 2021).

What was measured:
BLK = BLK (Homo sapiens (Human), UniProt P51451); experiment: Kinase inhibition BLK; assay type: biochemical
ITK = ITK (Homo sapiens (Human), UniProt Q08881); experiment: Kinase inhibition ITK; assay type: biochemical
TEC = TEC (Homo sapiens (Human), UniProt P42680); experiment: Kinase inhibition TEC; assay type: biochemical
TXK = TXK (Homo sapiens (Human), UniProt P42681); experiment: Kinase inhibition TXK; assay type: biochemical
Sequence of TXK (P42681 whole entry): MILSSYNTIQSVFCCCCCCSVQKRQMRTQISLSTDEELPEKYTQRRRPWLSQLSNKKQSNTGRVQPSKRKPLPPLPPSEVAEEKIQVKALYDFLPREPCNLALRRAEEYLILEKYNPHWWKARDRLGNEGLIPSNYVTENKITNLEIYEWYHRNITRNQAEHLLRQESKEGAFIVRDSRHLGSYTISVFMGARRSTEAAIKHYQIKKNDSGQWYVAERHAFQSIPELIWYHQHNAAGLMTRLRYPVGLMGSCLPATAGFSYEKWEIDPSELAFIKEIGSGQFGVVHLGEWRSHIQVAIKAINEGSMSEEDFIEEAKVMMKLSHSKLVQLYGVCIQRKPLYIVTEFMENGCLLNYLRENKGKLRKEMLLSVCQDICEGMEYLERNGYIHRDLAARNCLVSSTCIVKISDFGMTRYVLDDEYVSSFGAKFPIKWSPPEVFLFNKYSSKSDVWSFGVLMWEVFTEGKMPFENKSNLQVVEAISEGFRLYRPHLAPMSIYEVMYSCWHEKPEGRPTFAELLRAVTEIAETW

Ba/F3 TEL-ABL = Ba/F3 TEL-ABL (Homo sapiens, UniProt P00519); experiment: Inhibition of Ba/F3 TEL-ABL cell line; assay type: cell-based; details: read-out: IC50 (μM) Ba/F3 TEL-ABL
Sequence of Ba/F3 TEL-ABL (P00519 whole entry, looked up, change not shown): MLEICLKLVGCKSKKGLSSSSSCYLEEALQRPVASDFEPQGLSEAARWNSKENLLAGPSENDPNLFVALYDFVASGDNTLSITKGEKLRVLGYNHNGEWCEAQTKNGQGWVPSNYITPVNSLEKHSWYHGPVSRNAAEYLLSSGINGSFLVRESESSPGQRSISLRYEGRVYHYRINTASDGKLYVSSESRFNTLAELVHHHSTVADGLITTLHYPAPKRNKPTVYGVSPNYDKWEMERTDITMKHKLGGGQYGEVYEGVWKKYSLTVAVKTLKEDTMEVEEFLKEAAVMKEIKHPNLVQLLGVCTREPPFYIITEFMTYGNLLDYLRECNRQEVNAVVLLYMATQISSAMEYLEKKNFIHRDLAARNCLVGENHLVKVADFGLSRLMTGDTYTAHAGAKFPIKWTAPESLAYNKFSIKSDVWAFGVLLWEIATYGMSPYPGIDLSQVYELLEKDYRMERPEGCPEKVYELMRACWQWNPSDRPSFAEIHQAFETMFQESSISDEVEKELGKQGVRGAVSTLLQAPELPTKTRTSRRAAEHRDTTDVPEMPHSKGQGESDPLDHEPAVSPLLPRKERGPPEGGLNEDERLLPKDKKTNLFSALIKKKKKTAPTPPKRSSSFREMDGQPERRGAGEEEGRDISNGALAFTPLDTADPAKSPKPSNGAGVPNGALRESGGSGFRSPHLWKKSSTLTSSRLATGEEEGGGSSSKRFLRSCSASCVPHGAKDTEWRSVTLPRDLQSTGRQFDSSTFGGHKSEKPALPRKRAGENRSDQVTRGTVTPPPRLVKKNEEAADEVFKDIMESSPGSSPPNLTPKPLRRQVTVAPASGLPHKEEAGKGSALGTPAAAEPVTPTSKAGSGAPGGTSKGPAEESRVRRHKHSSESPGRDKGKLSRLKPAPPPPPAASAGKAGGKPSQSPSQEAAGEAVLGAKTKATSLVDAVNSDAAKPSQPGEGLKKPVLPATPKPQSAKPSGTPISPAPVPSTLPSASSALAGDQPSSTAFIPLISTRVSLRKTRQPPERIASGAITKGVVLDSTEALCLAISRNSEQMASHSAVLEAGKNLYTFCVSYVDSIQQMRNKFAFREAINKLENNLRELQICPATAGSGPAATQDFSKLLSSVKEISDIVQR
Experimental: (§1) Growth and inhibition of growth was assessed by MTS assay. This assay, a colorimetric method for determining the number of viable cells, is based on the bioreduction of 3-(4,5-dimethylthiazol-2-yl)-5-(3-carboxymethoxyphenyl)-2-(4-sulfophenyl)-2H-tetrazolium (MTS) by cells to a formazan product that is soluble in cell culture medium, can be detected spectrophotometrically and was performed according to the manufacturer's recommended conditions. Ba/F3 cells were exposed to treatment for 72 hours and the number of cells used per experiment determined empirically to assure linear growth kinetics over that time period. All experimental points were set up in six to twelve wells and all experiments were repeated at least three times. […] The curves were fitted using a non-linear regression model with a sigmoidal dose response.

Ba/F3 TYK2_E957D = Ba/F3 TYK2_E957D (Homo sapiens (Human), UniProt P29597, E957D); experiment: Inhibition of Ba/F3 TYK2_E957D cell line; assay type: cell-based; details: read-out: IC50 (μM) Ba/F3 TYK2_E957D
Experimental: as §1

Ba/F3 TEL-JAK1 = Ba/F3 TEL-JAK1 (Homo sapiens, UniProt P23458); experiment: Inhibition of Ba/F3 TEL-JAK1 cell line; assay type: cell-based; details: read-out: IC50 (μM) Ba/F3 TEL-JAK1
Sequence of Ba/F3 TEL-JAK1 (P23458 whole entry, looked up, change not shown): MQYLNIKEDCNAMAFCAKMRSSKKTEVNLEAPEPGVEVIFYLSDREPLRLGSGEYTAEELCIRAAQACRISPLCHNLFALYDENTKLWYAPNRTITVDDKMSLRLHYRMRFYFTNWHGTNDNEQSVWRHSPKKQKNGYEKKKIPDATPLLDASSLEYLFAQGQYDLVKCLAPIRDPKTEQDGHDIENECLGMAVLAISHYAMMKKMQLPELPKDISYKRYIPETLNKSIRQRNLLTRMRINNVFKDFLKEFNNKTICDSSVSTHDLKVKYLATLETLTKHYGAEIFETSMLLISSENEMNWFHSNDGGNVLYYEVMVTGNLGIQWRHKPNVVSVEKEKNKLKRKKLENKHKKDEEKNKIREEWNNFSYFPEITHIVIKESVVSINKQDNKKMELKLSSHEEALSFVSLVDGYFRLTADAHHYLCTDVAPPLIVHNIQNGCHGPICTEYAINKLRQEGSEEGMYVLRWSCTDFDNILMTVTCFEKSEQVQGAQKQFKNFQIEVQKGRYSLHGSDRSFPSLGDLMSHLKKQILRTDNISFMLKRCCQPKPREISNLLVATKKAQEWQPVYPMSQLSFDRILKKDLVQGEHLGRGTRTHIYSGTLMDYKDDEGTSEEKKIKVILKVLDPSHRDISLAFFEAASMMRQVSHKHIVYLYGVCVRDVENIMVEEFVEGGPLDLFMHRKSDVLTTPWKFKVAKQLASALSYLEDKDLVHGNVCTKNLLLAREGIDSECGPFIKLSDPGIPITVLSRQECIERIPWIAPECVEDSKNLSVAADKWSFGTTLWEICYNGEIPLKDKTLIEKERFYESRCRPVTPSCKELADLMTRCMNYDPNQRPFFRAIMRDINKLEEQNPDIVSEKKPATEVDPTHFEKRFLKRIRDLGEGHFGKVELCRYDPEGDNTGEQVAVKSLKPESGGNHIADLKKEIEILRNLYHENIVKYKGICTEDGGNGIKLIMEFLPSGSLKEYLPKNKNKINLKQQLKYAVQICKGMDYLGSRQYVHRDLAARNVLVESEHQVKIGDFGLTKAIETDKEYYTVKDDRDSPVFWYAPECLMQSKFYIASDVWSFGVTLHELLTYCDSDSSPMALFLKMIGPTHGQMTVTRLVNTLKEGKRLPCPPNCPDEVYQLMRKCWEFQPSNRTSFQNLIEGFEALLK
Experimental: as §1

Ba/F3 TEL-JAK2 = Ba/F3 TEL-JAK2 (Homo sapiens, UniProt O60674); experiment: Inhibition of Ba/F3 TEL-JAK2 cell line; assay type: cell-based; details: read-out: IC50 (μM) Ba/F3 TEL-JAK2
Sequence of Ba/F3 TEL-JAK2 (O60674 whole entry, looked up, change not shown): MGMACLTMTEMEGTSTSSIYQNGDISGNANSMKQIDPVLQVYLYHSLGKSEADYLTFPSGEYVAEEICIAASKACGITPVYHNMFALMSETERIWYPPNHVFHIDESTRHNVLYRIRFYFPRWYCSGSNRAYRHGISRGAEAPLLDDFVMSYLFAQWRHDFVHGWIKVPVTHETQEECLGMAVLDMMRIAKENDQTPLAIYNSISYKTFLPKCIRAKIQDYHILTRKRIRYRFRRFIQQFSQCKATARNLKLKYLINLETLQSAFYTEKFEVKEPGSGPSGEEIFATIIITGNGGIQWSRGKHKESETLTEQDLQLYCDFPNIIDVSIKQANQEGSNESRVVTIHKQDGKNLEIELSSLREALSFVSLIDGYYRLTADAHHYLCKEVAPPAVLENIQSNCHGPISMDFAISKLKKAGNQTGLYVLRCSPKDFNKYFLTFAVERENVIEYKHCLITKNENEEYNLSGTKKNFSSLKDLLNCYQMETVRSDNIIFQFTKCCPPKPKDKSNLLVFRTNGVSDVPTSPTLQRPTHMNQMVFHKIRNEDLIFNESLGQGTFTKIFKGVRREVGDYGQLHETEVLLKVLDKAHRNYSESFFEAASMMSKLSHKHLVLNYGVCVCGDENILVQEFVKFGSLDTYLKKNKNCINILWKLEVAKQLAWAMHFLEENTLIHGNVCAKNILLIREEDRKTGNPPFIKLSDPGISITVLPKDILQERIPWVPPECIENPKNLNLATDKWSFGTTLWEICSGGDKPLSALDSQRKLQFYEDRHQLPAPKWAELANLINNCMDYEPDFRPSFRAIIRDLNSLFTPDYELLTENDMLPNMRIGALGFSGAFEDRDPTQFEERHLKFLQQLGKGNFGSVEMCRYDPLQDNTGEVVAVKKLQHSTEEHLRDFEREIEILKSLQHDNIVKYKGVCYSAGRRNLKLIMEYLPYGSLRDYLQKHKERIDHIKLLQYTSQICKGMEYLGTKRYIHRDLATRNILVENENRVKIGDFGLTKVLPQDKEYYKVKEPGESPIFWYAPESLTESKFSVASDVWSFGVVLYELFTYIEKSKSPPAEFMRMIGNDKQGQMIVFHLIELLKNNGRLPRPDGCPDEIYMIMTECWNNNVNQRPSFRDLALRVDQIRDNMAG
Experimental: as §1

Ba/F3 TEL-JAK3 = Ba/F3 TEL-JAK3 (Homo sapiens, UniProt P52333); experiment: Inhibition of Ba/F3 TEL-JAK3 cell line; assay type: cell-based; details: read-out: IC50 (μM) Ba/F3 TEL-JAK3
Sequence of Ba/F3 TEL-JAK3 (P52333 whole entry, looked up, change not shown): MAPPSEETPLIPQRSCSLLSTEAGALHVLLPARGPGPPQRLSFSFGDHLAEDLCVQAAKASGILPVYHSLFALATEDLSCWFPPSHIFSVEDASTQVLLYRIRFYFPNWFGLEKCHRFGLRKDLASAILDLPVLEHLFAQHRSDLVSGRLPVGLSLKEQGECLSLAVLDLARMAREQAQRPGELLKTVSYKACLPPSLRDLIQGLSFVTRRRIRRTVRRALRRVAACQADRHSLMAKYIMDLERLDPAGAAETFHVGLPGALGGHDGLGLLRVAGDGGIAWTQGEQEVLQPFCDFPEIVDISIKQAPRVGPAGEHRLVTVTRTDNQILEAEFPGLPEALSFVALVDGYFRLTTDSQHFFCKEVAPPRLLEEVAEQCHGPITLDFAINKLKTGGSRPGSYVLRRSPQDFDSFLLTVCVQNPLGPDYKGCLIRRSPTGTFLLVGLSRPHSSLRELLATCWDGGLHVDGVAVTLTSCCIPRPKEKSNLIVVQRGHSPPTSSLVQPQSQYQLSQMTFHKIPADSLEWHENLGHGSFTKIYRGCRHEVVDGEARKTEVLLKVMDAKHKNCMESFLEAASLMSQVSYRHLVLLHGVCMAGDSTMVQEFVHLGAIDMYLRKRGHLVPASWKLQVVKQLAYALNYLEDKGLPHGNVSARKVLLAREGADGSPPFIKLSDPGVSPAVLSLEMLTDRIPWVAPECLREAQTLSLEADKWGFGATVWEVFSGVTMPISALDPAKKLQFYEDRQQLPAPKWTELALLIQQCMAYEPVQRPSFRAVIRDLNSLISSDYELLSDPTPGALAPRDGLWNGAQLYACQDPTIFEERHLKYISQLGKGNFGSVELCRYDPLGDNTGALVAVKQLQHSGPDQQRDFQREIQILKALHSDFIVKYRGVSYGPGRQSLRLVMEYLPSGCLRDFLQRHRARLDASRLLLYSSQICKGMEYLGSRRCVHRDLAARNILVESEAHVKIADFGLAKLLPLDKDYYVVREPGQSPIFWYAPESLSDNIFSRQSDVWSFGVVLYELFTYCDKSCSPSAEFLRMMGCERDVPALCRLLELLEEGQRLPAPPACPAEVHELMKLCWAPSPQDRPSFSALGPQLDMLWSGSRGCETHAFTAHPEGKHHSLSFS
Experimental: as §1

BTK = BTK (Homo sapiens (Human), UniProt Q06187); experiment: BTK kinase assay (LanthaScreen Kinase assay); assay type: biochemical
Experimental: BTK kinase assay was conducted using LanthaScreen® Kinase assay.
1. Optimization of kinase concentration required to determine ATP Km,app. The assay was first performed at a high concentration of ATP (1 mM) against a dilution series of kinase in order to determine the amount of kinase required to elicit an approximately 80% change between the minimum and maximum TR-FRET emission ratios (the EC80 value).
2. Determination of ATP Km,app. Using the concentration of enzyme determined in step 1, the assay was then performed against a dilution series of ATP in order to determine the amount of ATP required to elicit a 50% change between the minimum and maximum TR-FRET emission ratios (the EC50 value). This concentration of ATP was referred to as the “apparent” Km value for ATP, or the ATP Km,app.
3. Optimization of kinase concentration required for assay at ATP Km,app. Using the ATP Km,app concentration of ATP determined in step 2, the kinase titration was repeated in order to determine the concentration of kinase required to elicit an approximately 80% change between the minimum and maximum TR-FRET emission ratios at the ATP Km,app concentration of ATP (the EC80 value). This was the concentration of kinase that will be used in an assay to determine an IC50 value for a compound of the invention.
Using the ATP and kinase concentrations determined above, the reaction was then performed in the presence of a dilution series of various compounds of the invention, and the amount of compounds required to elicit a 50% change in TR-FRET ratio (the IC50) was determined. The experiments can be performed over two days, with steps one and two being performed on the first day, and step three and the inhibitor IC50 determination(s) being performed on the second day.

With C=CC(=O)Nc1cc(Nc2nccc(N(C)C(=O)Oc3ccccc3)n2)c(OC)cc1N(C)CCN(C)C [Compound 80A] the “Kinase inhibition (% control, 1000 nM compound) BLK” value (BLK) was 14 % control, the “Kinase inhibition (% control, 1000 nM compound) ITK” value (ITK) was 94 % control and the “Kinase inhibition (% control, 1000 nM compound) TEC” value (TEC) was 90 % control. The “Kinase inhibition (% control, 1000 nM compound) TXK” value (TXK) was 12 % control.
C=CC(=O)Nc1cccc(N(C(=O)OCc2ccccc2)c2ccnc(Nc3cnn(C4CCOCC4)c3)n2)c1 [Compound 84A] gave an IC50 (Ba/F3 TEL-ABL) of 11.3 µM, an IC50 (Ba/F3 TYK2_E957D) of 4.17 µM and an IC50 (Ba/F3 TEL-JAK1) of 7.41 µM. For the same compound, the IC50 (Ba/F3 TEL-JAK2) was 18.1 µM and the IC50 (Ba/F3 TEL-JAK3) was 0.139 µM.
For C=CC(=O)Nc1cccc(N(C(=O)OCc2ccccc2)c2ccnc(Nc3cnn(CCN4CCOCC4)c3)n2)c1 [Compound 85A], the IC50 (Ba/F3 TEL-ABL) was 16.1 µM, the IC50 (Ba/F3 TYK2_E957D) was 4.37 µM and the IC50 (Ba/F3 TEL-JAK1) was 8.86 µM. It also gave an IC50 (Ba/F3 TEL-JAK2) of 18.3 µM and an IC50 (Ba/F3 TEL-JAK3) of 0.189 µM.
Compound C=CC(=O)Nc1cccc(N(C(=O)OCc2ccccc2)c2ccnc3[nH]ccc23)c1 [Compound 103A] has an IC50 (BTK) of 2.24 µM.
Compound CN(C)C/C=C/C(=O)Nc1cccc(N(C(=O)OCc2ccccc2)c2ccnc3[nH]ccc23)c1 [Compound 104A] has an IC50 (BTK) of over 10 µM.
